Assay results taken from patent US20190153024A1, “NOVEL SALTS AND POLYMORPHS OF SCY-078” (priority 2015, published 2019).

Legend:
[1] = Kinetic solubility of SCY-078 freebase (MeOH desolvate, amorphous freebase); format: physicochemical; details: for Form: residual solid by XRPD; for kinetic solubility (in words): room temperature
Method: Kinetic Solubility of SCY-078 Freebase: The kinetic solubility of SCY-078 MeOH desolvate and SCY-078 amorphous freebase was evaluated in SGF media, FaSSIF media, FeSSIF media, dextrose buffer (pH 5.5), phosphate buffer (pH 6.0), and phosphate buffer (pH 7.5) at room temperature. First, solid SCY-078 MeOH desolvate or SCY-078 amorphous freebase (˜15 mg) was weighed into a 4-mL vial. Then the relevant media (3.0 mL) was added and the suspensions were stirred on a rolling incubator (25 rpm) at room temperature for 1 hour, 4 hours, and 24 hours respectively. After stirring, 0.5 mL of suspension was centrifuged and filtered (0.45 μm). The residual solids were analyzed by XRPD, and the supernatant was measured by HPLC and pH meter.

[2] = Kinetic solubility of trifluoroacetate Types A and B and HCl Type I (alternative procedure: SGF, FaSSIF and FeSSIF alternative media, acetate pH 5.5, phosphate pH 6.0 alternative media); details: residual solid by XRPD
Method: An alternative media (“FaSSIF alternative media”) was used to study the trifluoroacetate salts (Type A and B) and the HCl Type I salt. More specifically, the media was prepared by weighing 0.17 g of sodium phosphate monobasic (NaH2PO4, anhydrous), 0.021 g of sodium hydroxide, and 0.31 g of sodium chloride into a 50-mL volumetric flask and was dissolve with approximately 48 mL of purified water. The pH was adjusted to exactly 6.5 using 1 M HCl or 1 M NaOH and diluted to volume with purified water. 0.11 g of SIF powder was then added, stirred and sonicated until all the powder was completely dissolved. The solution was equilibrated for 2 hours at RT before use. The solution can be stored at RT for 48 hours or 4° C. for 7 days and should be equilibrated to RT before use
An alternative media (“FeSSIF alternative media”) was used to study the trifluoroacetate salts (Type A and B) and the HCl Type I salt. More specifically, the media was prepared by transferring 0.41 mL of glacial acid and weighing 0.20 g of sodium hydroxide, 0.59 g of sodium chloride into a 50-mL volumetric flask. This was dissolved with approximately 48 mL of purified water. The pH was adjusted to exactly 5.0 using 1 M HCl or 1 M NaOH and diluted to volume with purified water. 0.56 g of SIF powder was added, stirred and sonicated until all the powder is completely dissolved. The solution can be stored at RT for 48 hours or 4° C. for 7 days and should be equilibrated to RT before use.
Acetate Buffer (pH 5.5) Preparation—The acetate buffer (pH 5.5) used for the trifluoroacetate salts (Type A and B) and the HCl Type I salt was prepared by placing 0.60 g sodium acetate (NaC2H3O2.3H2O) in a 100-mL volumetric flask, adding 3 mL of 2 M acetic acid solution, and then adding purified water to volume.
An alternative media (“phosphate (pH 6.0) alternative media”) was used to study the trifluoroacetate salts (Type A and B) and the HCl Type I salt. More specifically, the media was prepared by dissolving 2.72 g of 0.2 M monobasic potassium phosphate (KH2PO4) in purified water, and diluting with purified water t 100 mL. 0.8 g of 0.2 M sodium hydroxide in purified water was diluted with purified water to 100 mL. Then 50 mL of the 0.2 M monobasic potassium phosphate solution was placed in a 200-mL volumetric flask, 5.6 mL of 0.2 M sodium hydroxide solution was added, and then purified water was added to volume.
The trifluoroacetate salts (Type A and B) and the HCl Type I salt were tested using the following alternative procedure. First, 15 mg, 36 mg or 90 mg solid was weighted into a 4-mL plastic tube, and 3 mL of relevant media was added before leaving the suspension on a rolling incubator (25 r/min). For SCF, 90 mg of solid was used. For FaSSIF, acetate buffer (pH 5.5), and phosphate buffer (pH 6.0), 15 mg solid was used. For FeSSIF, 36 mg of solid was used. 1.0 mL aliquot of the suspension was sampled for centrifugation with the supernatant submitted for HPLC and pH measurement and solid for XRPD characterization at 1 hr, 4 hr and/or 24 hrs.
The solubility of trifluoroacetate Type A, Type B and HCl Type I was measured in SGF at ambient temperature. Approximately 90 mg of solid sample was weighted into a 4-mL centrifuge tube, and 3 mL of SGF buffer was added before leaving the suspension on a rolling incubator (25 r/min). 1.0 mL aliquot of the suspension was sampled for centrifugation (10000 rpm, 3 mins) the supernatant was analyzed by HPLC and pH measurement and solid by XRPD characterization at 1 hr, 4 hr and 24 hrs, respectively.
The solubility of trifluoroacetate Type A, Type B and hydrochloride Type I was measured in the FaSSIF alternative media at ambient temperature. Approximately 15 mg of solid sample was weighted into a 4-mL plastic tube, and 3 mL of the media was added before leaving the suspension on a rolling incubator (25 r/min).

[3] = Physical and chemical stability of trifluoroacetate Types A and B and HCl Type I for 1, 2, 4 and 8 weeks; format: physicochemical
Method: High Power Liquid Chromatography (HPLC) Method—An Agilent 1260 HPLC with DAD detector was utilized to test solubility or to test purity and stability. […] System suitability was tested by injecting standard solutions five times in each sample sequence, and the relative standard deviation of the peak areas was less than 2%.
Physical and chemical stability evaluation of trifluoroacetate Type A, trifluoroacetate Type B, and HCl Type I was performed at 25° C./60% RH, 40° C./75% RH and 60° C. for 1, 2, 4 and 8 weeks. In the experiments, approximately 20 mg of solid was placed into a 1.5-mL glass vial. The vials were stored under 25° C./60% RH (uncapped), 40° C./75% RH (uncapped) and 60° C. (capped) conditions for 8 weeks. XRPD analysis was then employed to check the crystalline form of the solid, and HPLC was utilized to determine the purity profile at 1, 2, 4 and 8 weeks. […] The solid form change of trifluoroacetate Type A at 2 and 4 weeks was postulated to the air-exposure when the sample was taken out for XRPD characterization.

[4] = Chemical and physical stability of SCY-078 salts on storage (25° C./60% RH, 40° C./75% RH, 60° C.); format: physicochemical
From the text: For all compounds tested other than the trifluoroacetate salts (Type A and B) and the HCl Type I and II salts, the conditions and parameters used for measuring solubility are shown in Table 2A and for measuring stability are showing in Table 3A. The conditions and parameters used for the solubility of the trifluoroacetate salts (Type A and B) and the HCl Type I and II salts are shown in Table 2B and for stability are shown in Table 3B.

[5] = 25° C./60% RH (uncapped), 1 week
[6] = 25° C./60% RH (uncapped), 2 weeks
[7] = 25° C./60% RH (uncapped), 4 weeks
[8] = 25° C./60% RH (uncapped), 8 weeks
[9] = 40° C./75% RH (uncapped), 1 week
[10] = 40° C./75% RH (uncapped), 2 weeks
[11] = 40° C./75% RH (uncapped), 4 weeks
[12] = 40° C./75% RH (uncapped), 8 weeks
[13] = 25° C./60% RH, open dish, 4 days

## CC(C)[C@@H](C)[C@@]1(C)CC[C@]2(C)[C@H]3CC[C@@H]4[C@@]5(COC[C@]4(C)[C@@H](OC[C@](C)(N)C(C)(C)C)[C@H](n4ncnc4-c4ccncc4)C5)C3=CC[C@@]2(C)[C@@H]1C(=O)O [Amorph.]
[1]; FaSSIF, 1 hour
  Form: Amorph.
[1]; FaSSIF, 4 hours
  Form: Amorph.
[1]; FaSSIF, 24 hours
  Form: Amorph.
[1]; FeSSIF, 1 hour
  Form: Amorph.
[1]; FeSSIF, 4 hours
  Form: Amorph.
[1]; FeSSIF, 24 hours
  Form: Amorph.
[1]; pH 5.5 buffer, 4 hours
  Form: Amorph.
[1]; pH 5.5 buffer, 24 hours
  Form: Amorph.
[1]; pH 6.0 buffer, 4 hours
  Form: Amorph.
[1]; pH 6.0 buffer, 24 hours
  Form: Amorph,
[1]; pH 7.5 buffer, 4 hours
  Form: Amorph.
[1]; pH 7.5 buffer, 24 hours
  Form: Amorph.

## CC(C)[C@@H](C)[C@@]1(C)CC[C@]2(C)[C@H]3CC[C@@H]4[C@@]5(COC[C@]4(C)[C@@H](OC[C@](C)(N)C(C)(C)C)[C@H](n4ncnc4-c4ccncc4)C5)C3=CC[C@@]2(C)[C@@H]1C(=O)O [Desolv.]
[1]; FaSSIF, 1 hour
  Form: NF 1
[1]; FaSSIF, 4 hours
  Form: NF 1
[1]; FaSSIF, 24 hours
  Form: NF 1
[1]; FeSSIF, 1 hour
  Form: NF 1
[1]; FeSSIF, 4 hours
  Form: NF 1
[1]; FeSSIF, 24 hours
  Form: NF 1
[1]; pH 5.5 buffer, 4 hours
  Form: NF 2
[1]; pH 5.5 buffer, 24 hours
  Form: NF 2
[1]; pH 6.0 buffer, 4 hours
  Form: NF 1
[1]; pH 6.0 buffer, 24 hours
  Form: NF 3
[1]; pH 7.5 buffer, 4 hours
  Form: Desolv.
[1]; pH 7.5 buffer, 24 hours
  Form: Desolv.

## CC(C)[C@@H](C)[C@@]1(C)CC[C@]2(C)[C@H]3CC[C@@H]4[C@@]5(COC[C@]4(C)[C@@H](OC[C@](C)(N)C(C)(C)C)[C@H](n4ncnc4-c4ccncc4)C5)C3=CC[C@@]2(C)[C@@H]1C(=O)O [SCY-078 MeOH desolvate]
[1]; FaSSIF and pH 5.5, pH 6.0, pH 7.5 buffers
  kinetic solubility (in words): only sparingly soluble
[1]; FeSSIF, FaSSIF, pH 5.5 and 6.0 buffers
  solid form change during solubility measurement: Solid form change was observed
[1]; SGF and FeSSIF
  kinetic solubility (in words): high solubility

## CC(C)[C@@H](C)[C@@]1(C)CC[C@]2(C)[C@H]3CC[C@@H]4[C@@]5(COC[C@]4(C)[C@@H](OC[C@](C)(N)C(C)(C)C)[C@H](n4ncnc4-c4ccncc4)C5)C3=CC[C@@]2(C)[C@@H]1C(=O)O.O=C(O)C(F)(F)F [TFA Type A]
[2]; FaSSIF alternative media, 1 hr
  Form change: No
[2]; FaSSIF alternative media, 4 hrs
  Form change: No
[2]; FaSSIF alternative media, 24 hrs
  Form change: No
[2]; SGF, 1 hr
  Form change: No
[2]; SGF, 4 hrs
  Form change: No
[2]; SGF, 24 hrs
  Form change: No
[2]; acetate buffer (pH 5.5), 4 hrs
  Form change: No
[2]; acetate buffer (pH 5.5), 24 hrs
  Form change: No
[3]; [5]
  HPLC purity: 99.9%
  Solid form: Type A
[3]; [6]
  HPLC purity: 99.9%
  Solid form: Type B
[3]; [7]
  HPLC purity: 99.9%
  Solid form: Type A + B
[3]; 25° C./60% RH (uncapped), 6 weeks
  Solid form: Type A
[3]; [8]
  HPLC purity: 99.9%
  Solid form: Type A
[3]; [9]
  HPLC purity: 99.9%
  Solid form: Type A
[3]; [10]
  HPLC purity: 99.9%
  Solid form: Type B
[3]; [11]
  HPLC purity: 99.9%
  Solid form: Type A + B
[3]; 40° C./75% RH (uncapped), 6 weeks
  Solid form: Type A
[3]; [12]
  HPLC purity: 99.9%
  Solid form: Type A
[3]; 60° C. (capped), 1 week
  HPLC purity: 99.9%
  Solid form: Type A
[3]; 60° C. (capped), 2 weeks
  HPLC purity: 99.9%
  Solid form: Type B
[3]; 60° C. (capped), 4 weeks
  HPLC purity: 99.9%
  Solid form: Type A + B
[3]; 60° C. (capped), 6 weeks
  Solid form: Type A
[3]; 60° C. (capped), 8 weeks
  HPLC purity: 99.9%
  Solid form: Type A
[3]; Initial
  Initial HPLC purity: 99.9%

## CC(C)[C@@H](C)[C@@]1(C)CC[C@]2(C)[C@H]3CC[C@@H]4[C@@]5(COC[C@]4(C)[C@@H](OC[C@](C)(N)C(C)(C)C)[C@H](n4ncnc4-c4ccncc4)C5)C3=CC[C@@]2(C)[C@@H]1C(=O)O.O=C(O)CC(O)(CC(=O)O)C(=O)O [Type M]
[4]; [13]
  Impurity % by HPLC: 0.39%
  Solid form: Type M
[4]; 40° C./75% RH, open dish, 4 days
  Impurity % by HPLC: 0.00%
[4]; 40° C./75% RH, open dish, 4 days, *One peak change was observed
  Solid form: Type M*
[4]; 60° C. closed, 4 days
  Impurity % by HPLC: 0.63%
  Solid form: Type M
[4]; Initial
  Impurity % by HPLC: 0.42%

## CC(C)[C@@H](C)[C@@]1(C)CC[C@]2(C)[C@H]3CC[C@@H]4[C@@]5(COC[C@]4(C)[C@@H](OC[C@](C)(N)C(C)(C)C)[C@H](n4ncnc4-c4ccncc4)C5)C3=CC[C@@]2(C)[C@@H]1C(=O)O.O=C(O)CC(O)(CC(=O)O)C(=O)O [Type S]
[4]; 25° C./60% RH, open dish, 1 week
  Impurity % by HPLC: 0.03%
[4]; 25° C./60% RH, open dish, 1 week, **Peak shifts were observed
  Solid form: Type S**
[4]; 40° C./75% RH, open dish, 1 week
  Impurity % by HPLC: 0.03%
[4]; 40° C./75% RH, open dish, 1 week, **Peak shifts were observed
  Solid form: Type S**
[4]; 60° C. closed, 1 week
  Solid form: Type S
[4]; 60° C., closed dish, 1 week
  Impurity % by HPLC: 0.11%
[4]; Initial
  Impurity % by HPLC: 0.10%
